How the values were obtained:
MMP-2 = molecular target: T1, MMP-2 (Homo sapiens, UniProt P08253); assay: Test 3 MMP-2 inhibition activity test (gelatinase activity assay kit); type: biochemical; conditions: activated human MMP-2, biotin labeled gelatin
T1 construct: purchased Boeringer Manheim (Roche Diagnostics)
T1 sequence (P08253 110-660): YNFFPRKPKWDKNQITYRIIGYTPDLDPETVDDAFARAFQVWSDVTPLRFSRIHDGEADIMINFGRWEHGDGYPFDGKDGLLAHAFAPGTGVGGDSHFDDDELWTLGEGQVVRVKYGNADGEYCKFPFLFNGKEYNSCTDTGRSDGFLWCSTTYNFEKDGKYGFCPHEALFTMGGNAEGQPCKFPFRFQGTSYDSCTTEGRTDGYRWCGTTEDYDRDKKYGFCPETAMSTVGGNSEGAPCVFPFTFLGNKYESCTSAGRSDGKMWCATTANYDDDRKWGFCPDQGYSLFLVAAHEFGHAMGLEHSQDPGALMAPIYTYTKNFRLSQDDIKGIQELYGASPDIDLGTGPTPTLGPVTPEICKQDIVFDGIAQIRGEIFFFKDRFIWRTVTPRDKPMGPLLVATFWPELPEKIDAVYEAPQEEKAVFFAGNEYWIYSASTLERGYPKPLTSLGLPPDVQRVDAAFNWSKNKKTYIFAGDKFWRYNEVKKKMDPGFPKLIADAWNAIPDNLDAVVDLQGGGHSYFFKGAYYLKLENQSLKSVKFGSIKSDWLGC
Procedure: TTC buffer solution was attached to a MMP-2 enzyme assay kit, and the solution was made of 50 mM tris, 1 mM calcium chloride solution and 0.05% Triton X-100 solution, and was adjusted to pH 7.5.
Test 3 MMP-2 Inhibition Activity Test
MMP-2 enzyme assay kit (Gelatinase Activity Assay, Roche.Diagonistics) was used.
A mixture of 1.2U human MMP-2 (20 μl, Boeringer Manheim 30U freezed dry product), TTC buffer (980 μl) and 2.5 mM 4-aminophenyl mercuric acetate solution (144 μl) was incubated at 37° C. for 30 minutes and then it was preserved under ice cooling until use.
A mixture of DMSO solution (2 μl) containing a definite concentration of the compound, biotin labeled gelatin (188 μl) and activated MMP-2 solution (10 μl) was put on a 96 well-assay plate (protein nonabsorbance type), well agitated and incubated at 37° C. for 1 hour. This solution was transferred to a Streptavidin-coating plate and agitated at 15° C, to 30° C. for 30 minutes. And then the solution was washed with TTC buffer solution (200 μl) three times. Thereto was added Streptavidin-POD (200 μl) and the mixture was agitated at 15° C. to 25° C. for 60 minutes, followed by washing with TTC buffer (200 μl) three times. Then, ABTS solution (200 μl) was added thereto and after standing at room temperature for 40 minutes, furuorescence intensity was measure at 405 nm and IC50 was calculated.
In case of the above test, a control and a blank were prepared when the well was prepared as mentioned below. DMSO (2 μl) was used as a control instead of a sample solution. In the case of a blank, DMSO (2 μl) instead of the sample solution and the solution (10 μl) prepared in the same manner as preparation of activated MMP-2 solution but without adding 1.2U human MMP-2, instead of activated MMP-2 solution (10 μl), were used.

MMP-13 = molecular target: T2, MMP-13 (Homo sapiens, UniProt P45452); assay: Test 2 Test on MMP-13 inhibition activity (fluorogenic peptide substrate); type: biochemical; conditions: activated MMP-13, 37° C.
T2 construct: a fragment of 767 bp encoding original 84 amino acids of complete MMP-13 and encoding 164 amino acids; made in house; host or cells: E. coli BL21 (DE3), pET11a
Excerpt: Test 2 Test on MMP-13 Inhibition Activity
In order to subcloning C-terminal truncated cDNA in which the cDNA encodes procollagenase-3 (proMMP-13) (J. Biol. Chem., 269(24), 16766-16773 (1994)), two synthesized oligonucleotide primer fragments: • (5′-[…]-3′ and 5′-[…]-3′: In former the sequence for specific NdeI site (under line) including first methionine is included, and in latter terminal codon and BamHI site (under lined) are included.) were used with human cartilage cell cDNA library for PCR. Due to these primers and Pfu DNA polymelase (STRATAGENE) for PCR, there was obtained a fragment of 767 bp encoding original 84 amino acids of complete MMP-13 and encoding 164 amino acids. The said fragment was cut out with digestion by NdeI and BamHI, and the fragment was annealed to NdeI site and BamHI site of pET11a (STRATAGENE). The recombinant plasmid was transformed into E. coli BL21 (DE3) and the bacteria were cultivated. The crude cell extract was prepared according to the method of Biochemistry. The said extract was dialyzed with 20 mM Tris-HCl (pH 7.2)/5 mM CaCl2/0.02% NaN3 solution, treated with SP-sepharose HP column (1.6×10 cm, Amasham-Pharmacia biotec), and the eluting was carried out by liner gradient from 0 to 0.3 m of sodium chloride solution (50 ml) (partially purified proMMP-13 was eluted at about 0.2M.) The eluted fraction was dialyzed with 20 mM Tris-HCl (pH 7.9)/5 mM CaCl2/200 mM (NH4)2SO4/0.02% NaN3 solution, treated with phenylsepharose HP column (1.6×5 cm, Amersham-Pharmacia biotec), and the eluting was carried out by liner gradient from 0.2M to 0M sulfuric acid ammonium solution (purified proMMP-13 was eluted at about 50 mM.). The eluted fraction was concentrated by YM-5 ultrafilter membrane, and activated by 4-aminophenyl mercuric acetate. Activated MMP-13 was treated with gel filtration chromatography in accordance with the method of Biochemistry to be separated from propeptide. Inhibiting Test Method
Enzyme activity test was carried out by the method of G. Knight (FEBS Lett., 296(3), 263-266 (1992)).
A mixture of activated MMP-13 (20 nM, 10 μl), buffer solution (70 μl, pH 7.5 solution containing 100 mM Tris-HCl solution, 10 mM calcium chloride solution, 100 mM sodium chloride solution and 0.05% Briji-35 solution), MOCAc-Pro-Leu-Gly-Leu-A2pr(DNP)-Ala-Arg-NH2 in 0.1% DMSO solution (100 μM, 10 μl) and a test compound in DMSO solution was incubated for 1.5 hours at 37° C. The mixture was put on a 96 well-plate (100 μl/wel), and the plate was incubated at 37° C. The enzyme activity in the presence of the compound was measured based on fluorescence intensity (λex 320 nm, λem 405 nm), and IC50 was calculated.

SMILES	IC50 (MMP-2) [nM]	IC50 (MMP-13) [nM]
CCOC(=O)CN(C1(C(=O)NO)CCC1)S(=O)(=O)c1ccc(Oc2ccc(S(C)(=O)=O)cc2)cc1 [Example 46, Ethyl N-{1-[(hydroxyamino)carbonyl]cyclobutyl}-N-({4-[4-(methylsulfonyl)phenoxy]phenyl}sulfonyl)glycinate]	> 100	10.5
CS(=O)(=O)c1ccc(Oc2ccc(S(=O)(=O)NC3(C(=O)NO)CCC3)cc2)cc1 [Example 48, N-Hydroxy-1-[({4-[4-(methylsulfonyl)phenoxy]phenyl}sulfonyl)amino]cyclobutanecarboxamide]	> 100	6.9
CS(=O)(=O)c1ccc(Oc2ccc(CC3Sc4ccc(C(=O)O)cc4N(CC(=O)NO)C3=O)cc2)cc1 (centres unmarked) [Example 50]	> 100	3
COc1ccc(Oc2ccc(CC3Sc4ccc(C(=O)O)cc4N(CC(=O)NO)C3=O)cc2)cc1 (centres unmarked) [compound 1, reference compound]	> 100	7.4

Source: US7504537B2, “Hydroxamic acid derivative and MMP inhibitor containing the same as active ingredient” (Dainippon Sumitomo Pharma Co., Ltd., priority 2001, dated 2009)
